From publication PMC3684959 (Chemistry & biology, 2013)

What was measured:
[1] = biological target: T1, Arp3 (Arp2/3 complex) (Bos taurus, UniProt P61157); experiment: X-ray co-crystal structure, […] Å, with CK-869 also bound; format: binding
[2] = biological target: T1, Arp3 (Arp2/3 complex); experiment: fluorescence titration of BtArp2/[…] complex with ε-ATP; format: binding

| Kd [2] | SMILES | X-ray co-crystal structure, 2.5 Å, with CK-869 also bound [1] |
| --- | --- | --- |
|  | Nc1ncnc2c1ncn2[C@@H]1O[C@H](COP(=O)(O)OP(=O)(O)OP(=O)(O)O)[C@@H](O)[C@H]1O [ATP] | show strong density for both ATP and CK-869 bound to Arp3 subunit |
| 3 ± 0.4 µM | O=P(O)(O)OP(=O)(O)OP(=O)(O)OC[C@H]1O[C@@H](n2cnc3c2ncn2ccnc32)[C@H](O)[C@@H]1O [ε-ATP] |  |
